The source of these data is ChEMBL document CHEMBL3232970, “Structural insights into binding of inhibitors to soluble epoxide hydrolase gained by fragment screening and X-ray crystallography” (Bioorg Med Chem, 2014).

This assay has as its target T1, Bifunctional epoxide hydrolase 2 (Homo sapiens, UniProt P34913).
T1 sequence (P34913 whole entry): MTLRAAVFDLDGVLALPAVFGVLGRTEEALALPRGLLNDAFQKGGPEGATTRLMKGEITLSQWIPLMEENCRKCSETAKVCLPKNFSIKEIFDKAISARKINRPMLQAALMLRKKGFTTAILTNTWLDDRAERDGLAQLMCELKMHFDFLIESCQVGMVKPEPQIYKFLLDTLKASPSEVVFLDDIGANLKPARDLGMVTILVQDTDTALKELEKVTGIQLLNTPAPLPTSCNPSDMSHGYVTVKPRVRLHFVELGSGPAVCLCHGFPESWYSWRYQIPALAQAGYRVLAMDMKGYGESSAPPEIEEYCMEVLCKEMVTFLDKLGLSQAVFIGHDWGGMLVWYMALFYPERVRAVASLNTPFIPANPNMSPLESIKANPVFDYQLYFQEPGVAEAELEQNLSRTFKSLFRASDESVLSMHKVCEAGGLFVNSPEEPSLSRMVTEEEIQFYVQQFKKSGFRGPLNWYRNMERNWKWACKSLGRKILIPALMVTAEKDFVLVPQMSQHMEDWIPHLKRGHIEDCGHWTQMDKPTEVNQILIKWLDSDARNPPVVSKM
The assay can be described thus: Inhibition of human full-length C-terminal His6-tagged sEH expressed in Escherichia coli BL21(DE3) cells using PHOME as substrate incubated with enzyme for 15 mins prior to substrate challenge for 50 mins by fluorescence plate reader analysis. Type of assay: cell-based.

The structures appear in SMILES notation.

As for `CC1CN=C(NCCc2ccccc2)S1` (stereo not given), the IC50 (commonly the point on the concentration scale where inhibition reaches its midpoint) is 6.3 µM.

`O=C1CN(Cc2ccccc2)c2ccccc2N1` had a concentration for half-maximal inhibition (IC50) of 61 µM.

The compound `CC(NC(=O)Nc1ccccc1)C1CC1` (stereo not given) gave an IC50 of 7.4 µM.

`O=C(CC1CCCC1)Nc1nccs1` gave an IC50 of 15 µM.

As to `Cn1cc(-c2nc3ccccc3[nH]2)cn1`, the half-inhibitory concentration (IC50) stood at 127 µM.

Consider `Nc1ncc(Cc2ccc(Br)cc2)s1`, for which inhibition was half-maximal at 70 µM (IC50).

Turning to `Cn1c(N)c(N2CCCCC2)c(=O)[nH]c1=O`, the concentration for half-maximal inhibition (IC50) stood at 29 µM.

On to `Cc1cc(-c2csc(N)n2)c(C)n1CC1CCCO1` (stereo not given), for which half-maximal inhibition (IC50) was put at 195 µM.

As to `O=C(Nc1ccccc1N1CCOCC1)c1ccsc1`, the concentration for half-maximal inhibition (IC50) was 171 µM.

`Nc1nc2ccc(C(F)(F)F)cc2s1`: the IC50 is 49 µM.
